Assay results taken from patent publication US20160030443A1, “METHODS AND COMPOSITIONS FOR MODULATING REGULATORY T CELL FUNCTION” (priority 2013, published 2016).

Each molecule was assayed on human Treg cells (assay: Functional screening assay: naïve CD4+ T cell proliferation ([3H]thymidine) with Treg cells and small molecule compounds). Details: compound 1 μM; [3H]thymidine incorporation; marked effect = CPM>60K, 50% restoration.
Assay type: cell-based
Procedure: These small molecule compounds contain a quinolone structure. Those with a marked effect on the proliferation of CD4^+ naïve T cells (CPM>60K, 50% restoration compared to naïve T cells alone) are considered excellent candidates for further drug development. Naïve T cells alone or CD4^+ naïve cells plus Treg cells, without any compound serve as controls. […]
Specifically, a functional screening assay was carried out using soluable anti-CD3 antibody plus antigen-presenting cells (APCs). Naïve CD4^+T cells were purified from PBMCs using microbeads (Miltenvi Biotec). DCs were generated from PBMC-derived monocytes in the presence of IL-4 (500 ng/ml) and GM-CSF (800 ng/ml) for 7 days. 1×10^5 naïve CD4^+ T cells were cultured with regulatory T cells at different ratios of 1:0.2, 1:0.1 and 1:0.05 in 200 μl of medium containing 2×10^4 of DCs and anti-CD3 antibody (100 ng/ml) in the absence or presence of various small molecule compounds (1 μM). □ After 56 hours of culture, [^3H]thymidine was added at a final concentration of 1 μCi/well, followed by an additional 16 h. of culture. The incorporation of [^3H]thymidine was measured with a liquid scintillation counter. All experiments were performed in triplicate. In addition, a screening assay was performed usinge anti-CD3 antibody coated without APCs: 1×10^5 naïve CD4 T cells were cultured with regulatory T cells at different ratios of 1:0.2, 1:0.1 and 1:0.05 in anti-CD3 mAb-coated (2 μg/ml) 96-well plates in the absence or presence of various small molecule compounds (1 μM) □. After 56 h of culture, [^3H]thymidine was added at a final concentration of 1 μCi/well, followed by an additional 16 h of culture. The incorporation of [^3H]thymidine was measured with a liquid scintillation counter.

SMILES	Reversal of the suppressive function of Treg cells (restoration of naïve CD4+ T cell proliferation)
CCn1cc(C(=O)O)c(=O)c2cc(F)c(NN3C(=O)CSC3c3ccccc3Cl)cc21 (stereo not shown) [#11, {[2-(2-chlorophenyl)-4-oxo(1,3-thiazolidin-3-yl)]amino}-1-ethyl-6-fluoro-4-o xohydroquinoline-3-carboxylic acid]	ST048777 #11 No activity
CC1CCc2cc(F)cc3c(=O)c(C(=O)O)cn1c23 (stereo not shown) [#21, 9-Fluoro-5-methyl-1-oxo-6,7-dihydro-1H,5H-pyrido[3,2,1-ij]quinoline-2-carboxylic acid, reference compound]	TRE0065224 #21 No activity
CCn1cc(C(=O)O)c(=O)c2cc(F)c(Cl)cc21 [#19, 7-Chloro-1-ethyl-6-fluoro-4-oxo-1,4-dihydro-3-quinolinecarboxylic acid]	TRE0007211 #19 No activity
CCOC(=O)c1c[nH]c2c(F)c(F)c(F)cc2c1=O [#18, Ethyl 6,7,8-trifluoro-1,4-dihydro-4-oxo-3-quinilinecarboxylate]	TRE0006666 #18 No activity
CCN1CCN(c2cc3c(cc2F)c(=O)c(C(=O)O)cn3C2CC2)CC1 [#26, 1-Cyclopropyl-7-(4-ethyl-1-piperazinyl)-6-fluoro-4-oxo-1,4-dihydro-3-quinolinecarboxylic acid, reference compound]	TRE0076990 #26 No activity
CCn1cc(C(=O)O)c(=O)c2cc(F)c(NN3C(=O)C(Cl)C3c3ccc(OC)cc3)cc21 (stereo not shown) [#12, 7-{[3-Chloro-2-(4-methoxyphenyl)-4-oxo-1-azetidinyl]amino}-1-ethyl-6-fluoro-4-oxo-1,4-dihydro-3-quinolinecarboxylic acid]	ST026709 #12 No activity
Fc1ccccc1N1CCNCC1 [#17, 1-(2-Fluorophenyl)piperazine]	TRE0005772 #17 No activity
Fc1ccc(N2CCNCC2)c(F)c1 [#16, 1-(2,4-Difluorophenyl)piperazine]	TRE0005495 #16 No activity
CCOC(=O)c1cn(CC)c2c(F)c(F)c(F)cc2c1=O [#27, Ethyl 1-ethyl-6,7,8-trifluoro-1,4-dihydro-4-oxo-3-quinolinecarboxylate]	TRE0080754 #27 No activity
Fc1ccccc1N1CCNCC1 [#15, 1-(2-Fluorophenyl)piperazine]	TRE0004030 #15 No activity
CCOC(=O)c1cn(-c2ccc(F)cc2F)c2nc(Cl)c(F)cc2c1=O [#14, ethyl 7-chloro-1-(2,4-difluorophenyl)-6-fluoro-4-oxo-1,8-naphthyridine-3-carboxylate]	ST067113 #14 No activity
CCn1cc(C(=O)O)c(=O)c2cc(F)c(NN3C(=O)/C(=C\c4ccccc4)N=C3c3ccccc3)cc21 [#9, F[…] 5- MALEIMIDE]	ST023837 #9 No activity
CC1COc2c(F)c(F)cc3c(=O)c(C(=O)O)cn1c23 (stereo not shown) [#20, 9,10-Difluoro-3-methyl-7-oxo-2,3-dihydro-7H-[1,4]oxazino[2,3,4-ij]quinoline-6-carboxylic acid]	TRE0008195 #20 No activity
O=C(O)c1coc2ccc(F)cc2c1=O [#28, 6-Fluoro-4-oxo-4H-chromene-3-carboxylic acid]	TRE0080974 #28 No activity
CCCCCn1cc(C(=O)O)c(=O)c2cc(F)c(F)cc21 [#8, 6,7-difluoro-4-oxo-1-pentylquinoline-3-carboxylic acid]	ST008097 #8 No activity
O=C(O)c1c[nH]c2ccccc2c1=O [#10, 4-oxo-1H-quinoline-3-carboxylic acid]	ST020639 #10 No activity
